Laboratory results reported in ChEMBL document CHEMBL3885881, “DrugMatrix”.
“And” between values parts separate entries of the source, which are not always exact repeats. Equal values may be shown once.

Species: Rattus norvegicus
Assay: DrugMatrix - Regimen: Daily Repeat
Type: toxicity, organism-based, Sprague-Dawley
Design: regimen Daily Repeat, gender Male, age 6-8 weeks
Conditions: in vivo, po, route oral GAVAGE, vehicle 100 % WATER; for ABSOLUTE SEGMENTED NEUTROPHIL / BASOPHIL / EOSINOPHIL / ERYTHROCYTE COUNT / HEMATOCRIT / HEMOGLOBIN / LEUKOCYTE COUNT / LYMPHOCYTE / MEAN CORPUSCULAR HEMOGLOBIN / MEAN CORPUSCULAR HEMOGLOBIN CONCENTRATION / MEAN CORPUSCULAR VOLUME / MONOCYTE / NEUTROPHIL / NUCLEATED RED BLOOD CELLS / PLATELET COUNT / ABSOLUTE BASOPHIL / ABSOLUTE EOSINOPHIL / ABSOLUTE LYMPHOCYTE / ABSOLUTE MONOCYTE: tissue Blood; for ALANINE AMINOTRANSFERASE / ALBUMIN / ALKALINE PHOSPHATASE / ASPARTATE AMINOTRANSFERASE / BLOOD UREA NITROGEN / CARBON DIOXIDE / CHLORIDE / CHOLESTEROL / CREATINE PHOSPHOKINASE / CREATININE / GLUCOSE / LACTATE DEHYDROGENASE / LIPASE / PHOSPHORUS / POTASSIUM / SODIUM / TOTAL BILIRUBIN / TOTAL PROTEIN / URIC ACID: tissue Plasma
[1] = 0 mg/kg, 72 h, dose level Control, time 3 day
[2] = 0 mg/kg, 120 h, dose level Control, time 5 day
[3] = 0 mg/kg, […], dose level Control, time 14 day
[4] = 120 mg/kg, 72 h, dose level High, time 3 day
[5] = 120 mg/kg, 120 h, dose level High, time 5 day

COCCc1ccc(OCC(O)CNC(C)C)cc1 (centres undefined) [METOPROLOL]
ABSOLUTE SEGMENTED NEUTROPHIL [1]: 1139.67 CELLS/uL
BASOPHIL [1]: 1.07% and 0%
EOSINOPHIL [1]: 1.03% and 0.83%
ERYTHROCYTE COUNT [1]: 5.88 x10E6/uL and 5.54 x10E6/uL
HEMATOCRIT [1]: 38.37% and 35.35%
HEMOGLOBIN [1]: 12.5 G/DL and 13.22 G/DL
LEUKOCYTE COUNT [1]: 11.61 x10E3/uL and 12 x10E3/uL
LYMPHOCYTE [1]: 74.4% and 89%
MEAN CORPUSCULAR HEMOGLOBIN [1]: 21.23 pg and 23.88 pg
MEAN CORPUSCULAR HEMOGLOBIN CONCENTRATION [1]: 32.5 G/DL and 37.4 G/DL
MEAN CORPUSCULAR VOLUME [1]: 65.47 fL and 63.85 fL
MONOCYTE [1]: 2.73% and 1%
NEUTROPHIL [1]: 20.17% and 9.17%
NUCLEATED RED BLOOD CELLS [1]: 0 /100WBC
PLATELET COUNT [1]: 1067 x10E3/uL and 1333.33 x10E3/uL
ALANINE AMINOTRANSFERASE [1]: 35.33 u/L and 53.17 u/L
ALBUMIN [1]: 3.83 G/DL and 4.32 G/DL
ALKALINE PHOSPHATASE [1]: 469.67 u/L and 404.33 u/L
ASPARTATE AMINOTRANSFERASE [1]: 65.33 u/L and 83.17 u/L
BLOOD UREA NITROGEN [1]: 16.33 mg/dL and 15.67 mg/dL
CARBON DIOXIDE [1]: 44.67 mmol/L and 27.33 mmol/L
CHLORIDE [1]: 102 MEQ/L and 101.83 MEQ/L
CHOLESTEROL [1]: 71.33 mg/dL and 68.67 mg/dL
CREATINE PHOSPHOKINASE [1]: 256.67 u/L and 276.17 u/L
CREATININE [1]: 0.4 mg/dL and 0.18 mg/dL
GLUCOSE [1]: 165 mg/dL and 163.5 mg/dL
LACTATE DEHYDROGENASE [1]: 114.33 u/L and 144.67 u/L
LIPASE [1]: 16 u/L and 8.83 u/L
PHOSPHORUS [1]: 10.7 mg/dL and 11.72 mg/dL
POTASSIUM [1]: 6.87 MEQ/L and 5.99 MEQ/L
SODIUM [1]: 143 MEQ/L and 143.57 MEQ/L
TOTAL BILIRUBIN [1]: 0.4 mg/dL and 0.2 mg/dL
TOTAL PROTEIN [1]: 6.37 G/DL and 6.1 G/DL
URIC ACID [1]: 0.87 mg/dL and 1.38 mg/dL
ABSOLUTE SEGMENTED NEUTROPHIL [2]: 1137.17 CELLS/uL
BASOPHIL [2]: 0.57% and 0%
EOSINOPHIL [2]: 1.33% and 1.67%
ERYTHROCYTE COUNT [2]: 6.38 x10E6/uL and 5.82 x10E6/uL
HEMATOCRIT [2]: 42.13% and 36.35%
HEMOGLOBIN [2]: 13.6 G/DL and 13.58 G/DL
LEUKOCYTE COUNT [2]: 13.38 x10E3/uL and 14.38 x10E3/uL
LYMPHOCYTE [2]: 81.03% and 90.5%
MEAN CORPUSCULAR HEMOGLOBIN [2]: 21.27 pg and 23.32 pg
MEAN CORPUSCULAR HEMOGLOBIN CONCENTRATION [2]: 32.27 G/DL and 37.42 G/DL
MEAN CORPUSCULAR VOLUME [2]: 66 fL and 62.42 fL
MONOCYTE [2]: 2% and 0.17%
NEUTROPHIL [2]: 14.33% and 7.67%
NUCLEATED RED BLOOD CELLS [2]: 0 /100WBC
PLATELET COUNT [2]: 1279.33 x10E3/uL and 1337.67 x10E3/uL
ALANINE AMINOTRANSFERASE [2]: 29 u/L and 48.5 u/L
ALBUMIN [2]: 3.8 G/DL and 4.32 G/DL
ALKALINE PHOSPHATASE [2]: 440.33 u/L and 354.33 u/L
ASPARTATE AMINOTRANSFERASE [2]: 61.33 u/L and 80 u/L
BLOOD UREA NITROGEN [2]: 15.67 mg/dL and 16 mg/dL
CARBON DIOXIDE [2]: 44.67 mmol/L and 27.33 mmol/L
CHLORIDE [2]: 102 MEQ/L and 100.33 MEQ/L
CHOLESTEROL [2]: 59.67 mg/dL and 68 mg/dL
CREATINE PHOSPHOKINASE [2]: 184.33 u/L and 325.17 u/L
CREATININE [2]: 0.3 mg/dL and 0.23 mg/dL
GLUCOSE [2]: 180 mg/dL and 172 mg/dL
LACTATE DEHYDROGENASE [2]: 88.33 u/L and 254.83 u/L
LIPASE [2]: 8 u/L and 8.33 u/L
PHOSPHORUS [2]: 10.73 mg/dL and 12.17 mg/dL
POTASSIUM [2]: 6.5 MEQ/L and 6.28 MEQ/L
SODIUM [2]: 145.67 MEQ/L and 143.57 MEQ/L
TOTAL BILIRUBIN [2]: 0.3 mg/dL and 0.18 mg/dL
TOTAL PROTEIN [2]: 6.3 G/DL and 6.12 G/DL
URIC ACID [2]: 0.8 mg/dL and 1.78 mg/dL
ABSOLUTE BASOPHIL [3]: 130 cells/µL
ABSOLUTE EOSINOPHIL [3]: 60 cells/µL
ABSOLUTE LYMPHOCYTE [3]: 9510 cells/µL
ABSOLUTE MONOCYTE [3]: 270 cells/µL
BASOPHIL [3]: 0.93%
EOSINOPHIL [3]: 0.5%
ERYTHROCYTE COUNT [3]: 7.2 x10E6/uL
HEMATOCRIT [3]: 43.27%
HEMOGLOBIN [3]: 14.73 G/DL
LEUKOCYTE COUNT [3]: 12.58 x10E3/uL
LYMPHOCYTE [3]: 75.5%
MEAN CORPUSCULAR HEMOGLOBIN [3]: 20.5 pg
MEAN CORPUSCULAR HEMOGLOBIN CONCENTRATION [3]: 34.07 G/DL
MEAN CORPUSCULAR VOLUME [3]: 60.1 fL
MONOCYTE [3]: 1.33%
NEUTROPHIL [3]: 20.5%
PLATELET COUNT [3]: 1162 x10E3/uL
ALANINE AMINOTRANSFERASE [3]: 25.33 u/L
ALBUMIN [3]: 3.87 G/DL
ALKALINE PHOSPHATASE [3]: 321.67 u/L
ASPARTATE AMINOTRANSFERASE [3]: 60.33 u/L
BLOOD UREA NITROGEN [3]: 13.33 mg/dL
CARBON DIOXIDE [3]: 45 mmol/L
CHLORIDE [3]: 104.67 MEQ/L
CHOLESTEROL [3]: 72.33 mg/dL
CREATINE PHOSPHOKINASE [3]: 213.33 u/L
CREATININE [3]: 0.3 mg/dL
GLUCOSE [3]: 164 mg/dL
LACTATE DEHYDROGENASE [3]: 84.33 u/L
LIPASE [3]: 18.33 u/L
PHOSPHORUS [3]: 10.23 mg/dL
POTASSIUM [3]: 6.17 MEQ/L
SODIUM [3]: 144 MEQ/L
TOTAL BILIRUBIN [3]: 0.37 mg/dL
TOTAL PROTEIN [3]: 6.43 G/DL
URIC ACID [3]: 0.0667 mg/dL
ABSOLUTE BASOPHIL [4]: 76.7 cells/µL
ABSOLUTE EOSINOPHIL [4]: 230 cells/µL
ABSOLUTE LYMPHOCYTE [4]: 5150 cells/µL
ABSOLUTE MONOCYTE [4]: 220 cells/µL
BASOPHIL [4]: 1.03%
EOSINOPHIL [4]: 3.13%
ERYTHROCYTE COUNT [4]: 6.58 x10E6/uL
HEMATOCRIT [4]: 42.5%
HEMOGLOBIN [4]: 14.4 G/DL
LEUKOCYTE COUNT [4]: 7.41 x10E3/uL
LYMPHOCYTE [4]: 69.3%
MEAN CORPUSCULAR HEMOGLOBIN [4]: 21.87 pg
MEAN CORPUSCULAR HEMOGLOBIN CONCENTRATION [4]: 33.8 G/DL
MEAN CORPUSCULAR VOLUME [4]: 64.63 fL
MONOCYTE [4]: 2.97%
NEUTROPHIL [4]: 23.23%
PLATELET COUNT [4]: 1007 x10E3/uL
ALANINE AMINOTRANSFERASE [4]: 35 u/L
ALBUMIN [4]: 3.7 G/DL
ALKALINE PHOSPHATASE [4]: 368.67 u/L
ASPARTATE AMINOTRANSFERASE [4]: 69.33 u/L
BLOOD UREA NITROGEN [4]: 16.67 mg/dL
CARBON DIOXIDE [4]: 34.67 mmol/L
CHLORIDE [4]: 104 MEQ/L
CHOLESTEROL [4]: 74.33 mg/dL
CREATINE PHOSPHOKINASE [4]: 338.33 u/L
CREATININE [4]: 0.47 mg/dL
GLUCOSE [4]: 161.33 mg/dL
LACTATE DEHYDROGENASE [4]: 274.33 u/L
LIPASE [4]: 13 u/L
PHOSPHORUS [4]: 11.6 mg/dL
POTASSIUM [4]: 6.57 MEQ/L
SODIUM [4]: 142.67 MEQ/L
TOTAL BILIRUBIN [4]: 0.37 mg/dL
TOTAL PROTEIN [4]: 6.03 G/DL
URIC ACID [4]: 0.97 mg/dL
ABSOLUTE BASOPHIL [5]: 66.7 cells/µL
ABSOLUTE EOSINOPHIL [5]: 380 cells/µL
ABSOLUTE LYMPHOCYTE [5]: 7010 cells/µL
ABSOLUTE MONOCYTE [5]: 250 cells/µL
